The assay in a line: phenylbenzoquinone (PBQ) writhing method (analgesia in mice, Sigmund et al). Format: in vivo. The settings on record: mice, phenylbenzoquinone writhing; for ED50: Mus musculus. As to the method:
Analgesia was assessed in mice utilizing the hot plate method of Eddy and Leimbach, Journal Pharmacology Expt. Therap., 107, 385, 1953, and/or the phenylbenzoquinone writhing method described by Sigmund et al, Proc. Soc. Exptl. Biol. Med., 95, 729, 1957. The hot plate method is based upon the delay in reaction time, following administration of an active analgesic when animals are placed on a heated […] plate maintained at constant temperature. Thus, the numbers of mice showing elevation of response times over control values after administration of various doses of an unknown compound are used to determine the median effective dose (ED50), which is that dose affecting 50% of the animals. The writhing method is based upon inhibition by an analgesic of the response which occurs when the chemical agent phenylbenzoquinone is injected intraperitoneally. This response is characterized by a twisting or stretching of the body and is referred to as writhing. Following administration of an analgesic or unknown compound into mice, the numbers of animals not responding to the phenylbenzoquinone challenge by writhing are determined.
A general note: Writhing tests count abdominal constrictions after an irritant is injected.

[1] abbreviates: po, oral route, read-out: Analgesic Tests ED50 PBQ P.O.
The mark [2] stands for this setting: sc, subcutaneous route, read-out: Analgesic Tests ED50 PBQ S.C.

Where a name gives a salt, the structure may show the parent alone. Read-outs that look alike come from different tables or passages of the source.

In general, ED50 refers to the dose at which the effect has come halfway, by size or by number of responders.

As to `CC(=O)OC1(C(C)CN(C)C)CCCCC1c1ccc(O)cc1.Cl` (stereo not drawn) [XXXI, 1-(2-Dimethylamino-1-methylethyl)-2-(p-hydroxyphenyl)cyclohexyl acetate hydrochloride], the ED50 was over 100 mg/kg under setting [1] and over 100 mg/kg under setting [2].
Regarding `C=CCN(CC=C)CC(C)C1(OC(C)=O)CCCCC1c1ccccc1` (stereo not drawn) [Example XVI, 1-(2-Diallylamino-1-methylethyl)-2-phenylcyclohexyl acetate], the 50% effective dose (ED50) runs as follows: under setting [1], over 30 mg/kg; under setting [2], over 3 mg/kg.
Turning to `CC(=O)OC1(C(C)CN(C)C)CCCCC1c1ccccc1` (single isomer, unassigned; (+)) [Example X, (+)-1-(2-Dimethylamino-1-methylethyl)-2-phenylcyclohexyl acetate], under “oral route”, the “Analgesic Tests ED50 PBQ P.O.” value is reported as over 100 mg/kg. For the same compound, the “Analgesic Tests ED50 PBQ S.C.” value (subcutaneous route) stood at 16.5 mg/kg.
Take `CC(=O)OC1(C(C)CN(C)C)CCCCC1c1ccccc1` (single isomer, unassigned; (-)) [Example IX, (-)-1-(2-Dimethylamino-1-methylethyl)-2-phenylcyclohexyl acetate]: under “oral route”, the “Analgesic Tests ED50 PBQ P.O.” value worked out at 16 mg/kg. For the same compound, under “subcutaneous route”, the “Analgesic Tests ED50 PBQ S.C.” value is reported as 2.15 mg/kg.
`COc1ccc(C2CCCCC2(OC(C)=O)C(C)CN(C)C)cc1` (stereo not drawn) [Example XXV, 1-(2-Dimethylamino-1-methylethyl)-2-(p-methoxyphenyl)-cyclohexylacetate hydrochloride]: the ED50 runs as follows: under setting [1], over 100 mg/kg; under setting [2], over 30 mg/kg.
`CC(=O)OC1(C(C)CN2CCCC2)CCCCC1c1ccccc1.O=S(=O)(O)O` (stereo not drawn) [Example XXII, 1-(1-Methyl-2-pyrrolidinoethyl)-2-phenylcyclohexyl acetate sulfate]: the ED50 was over 30 mg/kg under setting [1] and about 10 mg/kg under setting [2].
On to `CC(=O)OC1(C(C)CN2CCCCC2)CCCCC1c1ccccc1.Cl` (stereo not drawn) [XII, 1-(1-Methyl-2-piperidinoethyl)-2-phenylcyclohexyl acetate hydrochloride], for which the ED50 is, setting by setting: under setting [1], about 60 mg/kg; under setting [2], about 30 mg/kg.
For `CC(=O)OC1(C(C)CN2CCOCC2)CCCCC1c1ccccc1.Cl` (stereo not drawn) [XIX, 1-(1-Methyl-2-morpholinoethyl)2-phenylcyclohexyl acetate hydrochloride], the 50% effective dose (ED50) under setting [1] was 40 mg/kg and the median effective dose (ED50) under setting [2] turned out to be 56.2 mg/kg.
For `C=CCN(C)CC(C)C1(OC(C)=O)CCCCC1c1ccccc1` (stereo not drawn) [XIII, 1-(2-Allylmethylamino-1-methylethyl)-2-phenylcyclohexyl acetate], the ED50 runs as follows: under setting [1], about 100 mg/kg; under setting [2], about 30 mg/kg.
The corresponding values for `CC(=O)OC1(C(C)N(C)C)CCCCC1c1ccccc1` (stereo not drawn) [XXVIII, 1-(1-Dimethylaminoethyl)-2-phenylcyclohexyl acetate cyclohexylsulfamate] are over 30 mg/kg and over 10 mg/kg.
In the case of `CC(=O)OC1(CCN(C)C)CCCCC1c1ccccc1` (stereo not drawn) [Example XV, 1-(2-Dimethylaminoethyl)-2-phenylcyclohexyl acetate cyclohexylsulfamate], the ED50 was over 30 mg/kg under setting [1] and over 10 mg/kg under setting [2].
In the case of `COc1ccc(C2CCCCC2(O)C(C)CN(C)C)cc1OC` (stereo not drawn) [XXXII, 2-(3,4-Dimethoxyphenyl)-1-(2-dimethylamino-1-methylethyl)cyclohexanol p-toluenesulfonate], the ED50 is over 100 mg/kg under setting [1] and about 30 mg/kg under setting [2].
As to `CN(C)CCC1(O)CCCCC1c1ccccc1` (stereo not drawn) [Example XIV, 1-(2-Dimethylaminoethyl)-2-phenylcyclohexanol], the 50% effective dose (ED50) was over 100 mg/kg under setting [1] and about 30 mg/kg under setting [2].
With `CC(CN(C)C)C1(O)CCCCC1c1ccc(O)cc1` (stereo not drawn) [Example XXX, 1-(2-Dimethylamino-1-methylethyl)-2-(p-hydroxyphenyl)-cyclohexanol], the ED50 under setting [1] is over 100 mg/kg and the 50% effective dose (ED50) under setting [2] is over 30 mg/kg.
Turning to `CC(N(C)C)C1(O)CCCCC1c1ccccc1.Cl` (stereo not drawn) [Example XXVII, 1-(1-Dimethylaminoethyl)-2-phenylcyclohexanol hydrochloride], the 50% effective dose (ED50) under setting [1] was over 100 mg/kg and the ED50 under setting [2] was over 100 mg/kg.

(Values after patent US3974157A, “1-(Amino-alkyl)-2-aryl-cyclohexane alcohols and esters” (Pennwalt Corporation, priority 1975, dated 1976).)
